Data published in patent US12077503B2, “Substituted cyclic amides and their use as herbicides” (FMC CORPORATION, priority 2015, dated 2024).

What was measured:
Assay type in all cases: in vivo
Kochia (Kochia scoparia) [1] = assay: Test A preemergence; settings: Bassia scoparia, pre-emergence, 240 h, 0 to 100 scale where 0 is no effect and 100 is complete control, read-out: Kochia plant response rating; for pest or weed control at 31 g/ha: 31 g ai/ha, Preemergence; for pest or weed control at 125 g/ha: 125 g ai/ha, preemergence, visual injury rating, approximately 10 d
Method in brief: (§1)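 Visual injury, scored on a 0–100 scale relative to untreated controls, was recorded about 10 d after application. Treatments were a preemergence soil spray over planted seeds or a postemergence spray on plants at the one- to two-leaf stage, 2 to 10 cm tall, all in loam soil–sand blend in the greenhouse.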

[2] = system: barnyardgrass (Echinochloa crus-galli); assay: Test A preemergence; settings: Echinochloa crus-galli, pre-emergence, 240 h, 0 to 100 scale where 0 is no effect and 100 is complete control, read-out: Barnyardgrass plant response rating; for pest or weed control at 31 g/ha: 31 g ai/ha, Preemergence; for pest or weed control at 125 g/ha: 125 g ai/ha, preemergence, visual injury rating, approximately 10 d
Method in brief: as §1

[3] = system: giant foxtail (Setaria faberii); assay: Test A preemergence; settings: Setaria faberi, pre-emergence, 240 h, 0 to 100 scale where 0 is no effect and 100 is complete control, read-out: Foxtail, Giant plant response rating; for pest or weed control at 31 g/ha: 31 g ai/ha, Preemergence; for pest or weed control at 125 g/ha: 125 g ai/ha, preemergence, visual injury rating, approximately 10 d
Method in brief: as §1

[4] = system: pigweed (Amaranthus retroflexus); assay: Test A preemergence; settings: Amaranthus retroflexus, pre-emergence, 240 h, 0 to 100 scale where 0 is no effect and 100 is complete control, read-out: Pigweed plant response rating; for pest or weed control at 31 g/ha: 31 g ai/ha, Preemergence; for pest or weed control at 125 g/ha: 125 g ai/ha, preemergence, visual injury rating, approximately 10 d
[5] = system: ragweed (common ragweed, Ambrosia elatior); assay: Test A preemergence; settings: Ambrosia artemisiifolia, pre-emergence, 240 h, 0 to 100 scale where 0 is no effect and 100 is complete control, read-out: Ragweed plant response rating; for pest or weed control at 31 g/ha: 31 g ai/ha, Preemergence; for pest or weed control at 125 g/ha: 125 g ai/ha, preemergence, visual injury rating, approximately 10 d
Method in brief: as §1

[6] = system: ryegrass, Italian (Italian ryegrass, Lolium multiflorum); assay: Test A preemergence; settings: Lolium multiflorum, pre-emergence, 240 h, 0 to 100 scale where 0 is no effect and 100 is complete control, read-out: Ryegrass, Italian plant response rating; for pest or weed control at 31 g/ha: 31 g ai/ha, Preemergence; for pest or weed control at 125 g/ha: 125 g ai/ha, preemergence, visual injury rating, approximately 10 d
Method in brief: as §1

[7] = system: Galium (catchweed bedstraw, Galium aparine); assay: Test A postemergence; settings: Galium, post-emergence, 240 h, Postemergence, read-out: Galium plant response rating (0 to 100 scale); for pest or weed control at 125 g/ha: 125 g ai/ha, visual rating about 10 d after treatment; for pest or weed control at 31 g/ha: 31 g ai/ha, 0 is no effect, 100 is complete control
Method in brief: as §1

Kochia (Kochia scoparia) [8] = assay: Test A postemergence; settings: Bassia scoparia, post-emergence, 240 h, Postemergence, read-out: Kochia plant response rating (0 to 100 scale); for pest or weed control at 125 g/ha: 125 g ai/ha, visual rating about 10 d after treatment; for pest or weed control at 31 g/ha: 31 g ai/ha, 0 is no effect, 100 is complete control
Method in brief: as §1

[9] = system: barnyardgrass (Echinochloa crus-galli); assay: Test A postemergence; settings: Echinochloa crus-galli, post-emergence, 240 h, Postemergence; for pest or weed control at 125 g/ha: 125 g ai/ha, visual rating about 10 d after treatment, read-out: Barnyardgrass plant response rating (0 to 100 scale, 0 no effect, 100 complete control); for pest or weed control at 31 g/ha: 31 g ai/ha, 0 is no effect, 100 is complete control, read-out: Barnyardgrass plant response rating (0 to 100 scale)
Method in brief: as §1

[10] = system: blackgrass (Alopecurus myosuroides); assay: Test A postemergence; settings: Alopecurus myosuroides, post-emergence, 240 h, Postemergence, read-out: Blackgrass plant response rating (0 to 100 scale); for pest or weed control at 125 g/ha: 125 g ai/ha, visual rating about 10 d after treatment; for pest or weed control at 31 g/ha: 31 g ai/ha, 0 is no effect, 100 is complete control
Method in brief: as §1

corn (Zea mays) = assay: Test A postemergence; settings: Zea mays, post-emergence, 240 h, Postemergence, read-out: Corn plant response rating (0 to 100 scale); for plant injury at 125 g/ha: 125 g ai/ha, visual rating about 10 d after treatment; for plant injury at 31 g/ha: 31 g ai/ha, 0 is no effect, 100 is complete control
Method in brief: as §1

[11] = system: giant foxtail (Setaria faberii); assay: Test A postemergence; settings: Setaria faberi, post-emergence, 240 h, Postemergence, read-out: Foxtail, Giant plant response rating (0 to 100 scale); for pest or weed control at 125 g/ha: 125 g ai/ha, visual rating about 10 d after treatment; for pest or weed control at 31 g/ha: 31 g ai/ha, 0 is no effect, 100 is complete control
Method in brief: as §1

[12] = system: pigweed (Amaranthus retroflexus); assay: Test A postemergence; settings: Amaranthus retroflexus, post-emergence, 240 h, Postemergence, read-out: Pigweed plant response rating (0 to 100 scale); for pest or weed control at 125 g/ha: 125 g ai/ha, visual rating about 10 d after treatment; for pest or weed control at 31 g/ha: 31 g ai/ha, 0 is no effect, 100 is complete control
Method in brief: as §1

[13] = system: ragweed (common ragweed, Ambrosia elatior); assay: Test A postemergence; settings: Ambrosia artemisiifolia, post-emergence, 240 h, Postemergence, read-out: Ragweed plant response rating (0 to 100 scale); for pest or weed control at 125 g/ha: 125 g ai/ha, visual rating about 10 d after treatment; for pest or weed control at 31 g/ha: 31 g ai/ha, 0 is no effect, 100 is complete control
Method in brief: as §1

[14] = system: ryegrass, Italian (Italian ryegrass, Lolium multiflorum); assay: Test A postemergence; settings: Lolium multiflorum, post-emergence, 240 h, Postemergence, read-out: Ryegrass, Italian plant response rating (0 to 100 scale); for pest or weed control at 125 g/ha: 125 g ai/ha, visual rating about 10 d after treatment; for pest or weed control at 31 g/ha: 31 g ai/ha, 0 is no effect, 100 is complete control
Method in brief: as §1

[15] = system: wheat (Triticum aestivum); assay: Test A postemergence; settings: Triticum aestivum, post-emergence, 240 h, Postemergence, read-out: Wheat plant response rating (0 to 100 scale); for plant injury at 125 g/ha: 125 g ai/ha, visual rating about 10 d after treatment; for plant injury at 31 g/ha: 31 g ai/ha, 0 is no effect, 100 is complete control
Method in brief: as §1

[16] = system: barnyardgrass (Echinochloa crus-galli); assay: Test B flooded paddy test; settings: Echinochloa crus-galli, 250 g ai/ha, Flood; 0 to 100 scale where 0 is no effect and 100 is complete control; read-out: Barnyardgrass plant response rating
Method in brief: (§2)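 Response scored visually against untreated controls, 0 = no effect and 100 = complete control, 13–15 d after treatment in the greenhouse. Compounds added to paddy water held 3 cm above soil surface. Treatment given at 2-leaf stage.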

[17] = system: ducksalad (Heteranthera limosa); assay: Test B flooded paddy test; settings: Heteranthera limosa, 250 g ai/ha, Flood; 0 to 100 scale where 0 is no effect and 100 is complete control; read-out: Ducksalad plant response rating
Method in brief: as §2

rice (Oryra sativa) = assay: Test B flooded paddy test; settings: Oryza sativa, 250 g ai/ha, Flood; 0 to 100 scale where 0 is no effect and 100 is complete control; read-out: Rice plant response rating
Method in brief: as §2

[18] = system: sedge, umbrella (small-flower umbrella sedge, Cyperus difformis); assay: Test B flooded paddy test; settings: Cyperus difformis, 250 g ai/ha, Flood; 0 to 100 scale where 0 is no effect and 100 is complete control; read-out: Sedge, Umbrella plant response rating
Method in brief: as §2

Row | SMILES | pest or weed control at 31 g/ha (Kochia (Kochia scoparia) [1]) [%] | pest or weed control at 125 g/ha (Kochia (Kochia scoparia) [1]) [%] | pest or weed control at 31 g/ha [2] [%] | pest or weed control at 125 g/ha [2] [%] | pest or weed control at 31 g/ha [3] [%] | pest or weed control at 125 g/ha [3] [%] | pest or weed control at 31 g/ha [4] [%] | pest or weed control at 125 g/ha [4] [%] | pest or weed control at 31 g/ha [5] [%] | pest or weed control at 125 g/ha [5] [%] | pest or weed control at 31 g/ha [6] [%] | pest or weed control at 125 g/ha [6] [%] | pest or weed control at 125 g/ha [7] [%] | pest or weed control at 31 g/ha [7] [%] | pest or weed control at 125 g/ha (Kochia (Kochia scoparia) [8]) [%] | pest or weed control at 31 g/ha (Kochia (Kochia scoparia) [8]) [%] | pest or weed control at 125 g/ha [9] [%] | pest or weed control at 31 g/ha [9] [%] | pest or weed control at 125 g/ha [10] [%] | pest or weed control at 31 g/ha [10] [%] | other results
1 | Cc1ccc([C@H]2CN(C)C(=O)[C@@H]2C(=O)Nc2c(F)c(F)c(F)c(F)c2F)cc1 [Compound 1292] | 60 | 60 | 0 | 50 | 70 | 80 | 40 | 40 | 0 | 0 | 0 | 40 | 0 | 0 | 0 | 0 | 0 | 0 | 0 | 0 | plant injury at 125 g/ha (corn (Zea mays)): 0%; plant injury at 31 g/ha (corn (Zea mays)): 0%; pest or weed control at 125 g/ha [11]: 0%; pest or weed control at 31 g/ha [11]: 0%; pest or weed control at 125 g/ha [12]: 0%; pest or weed control at 31 g/ha [12]: 0%; pest or weed control at 125 g/ha [13]: 0%; pest or weed control at 31 g/ha [13]: 0%; pest or weed control at 125 g/ha [14]: 0%; pest or weed control at 31 g/ha [14]: 0%; plant injury at 125 g/ha [15]: 0%; plant injury at 31 g/ha [15]: 0%; pest or weed control at 250 g/ha [16]: 0%; pest or weed control at 250 g/ha [17]: 0%; pest or weed control at 250 g/ha (rice (Oryra sativa)): 15%; pest or weed control at 250 g/ha [18]: 0%
2 | O=C(Nc1ccccc1F)C1C(=O)N(CC(F)F)CC1c1cccc(C(F)(F)F)c1 (stereo not drawn) [Compound 1293] | 0 | 0 | 0 | 20 | 0 | 20 | 0 | 0 | 0 | 0 | 0 | 0 | 0 | 0 | 0 | 0 | 20 | 0 | 0 | 0 | plant injury at 125 g/ha (corn (Zea mays)): 0%; plant injury at 31 g/ha (corn (Zea mays)): 0%; pest or weed control at 125 g/ha [11]: 0%; pest or weed control at 31 g/ha [11]: 0%; pest or weed control at 125 g/ha [12]: 0%; pest or weed control at 31 g/ha [12]: 0%; pest or weed control at 125 g/ha [13]: 0%; pest or weed control at 31 g/ha [13]: 0%; pest or weed control at 125 g/ha [14]: 0%; pest or weed control at 31 g/ha [14]: 0%; plant injury at 125 g/ha [15]: 0%; plant injury at 31 g/ha [15]: 0%; pest or weed control at 250 g/ha [16]: 0%; pest or weed control at 250 g/ha [17]: 0%; pest or weed control at 250 g/ha (rice (Oryra sativa)): 0%; pest or weed control at 250 g/ha [18]: 0%
